Measured values as given in publication PMC4778124, “A continuous sirtuin activity assay without any coupling to enzymatic or chemical reactions” (Scientific Reports, 2016).
Where a name gives a salt, the structure may show the parent alone. Read-outs that look alike come from different tables or passages of the source. Each block holds one compound with its values, some of them ahead of it. Starred links: 1 amine or outer side, 2 acyl side, 3 side chain; linkers in the order of their positions; H or OH if unused. Positions of bridges follow the written chain, without caps; N, C: chain ends. Non-standard residues stand in square brackets, D forms with d. Residues, ends and D or L forms follow the SMILES beside them. *: point of attachment. X1 = CCCCCCCCCCCCCC(=S)N(C)CCCC[C@H](N[*:1])C(=O)[*:2]; Tfa = O=C(C(F)(F)F)*

Assays:
Sirt6 [1] = tested on: Sirt6; design: method as in PMID 25004411; conditions: cited from earlier work; for inhibition of enzymatic activity: 200 μM concentration
Sirt6 [2] = biological target: T1, Sirt6 (Homo sapiens, UniProt Q8N6T7); experiment: Ki determination with substrate 3, 96-well MTP fluorescence reader; assay type: biochemical; conditions: for type of inhibition with respect to the peptide substrate: Sirt6, substrate 3
T1 construct: His-tag; made in house; host or cells: E. coli BL21 DE3
Protocol: All measurements were done in duplicates.
(§1) Supplementary Figure S13. […] Data are presented as mean ± s.d. (n=2) and lines represent the Michaelis-Menten-plot (left) and secondary plots (right). The apparent KM or Vmax^app-1 values from v/[S] characteristics were plotted against the corresponding inhibitor concentration.
as §1, with “S14. […] The reactions were performed with 0.5 µM Sirt6 and either 500 µM NAD^+ and varying concentrations of 3 (2-100 µM).” for “S13.”, “apparent” for “apparent KM or”
Supplementary Figure S15. Kinetic characteristics for sirtuin inhibitor 8. The reactions were performed with 0.01 µM Sirt2 /0.1 µM Sirt3 /0.5 µM Sirt6 and 500 µM NAD^+ and varying concentrations of 3 (0.07-100 µM). […] Data are presented as mean ± s.d. (n=2) and lines represent the Michaelis-Menten-plot (left) and secondary plots (right). The apparent Vmax^app-1 values from v/[S] characteristics were plotted against the corresponding inhibitor concentration.

Sirt2 = biological target: T2, Sirt2 (Homo sapiens, UniProt Q8IXJ6); experiment: as above; assay type: biochemical
T2 construct: made in house
T2 sequence (Q8IXJ6 1-389): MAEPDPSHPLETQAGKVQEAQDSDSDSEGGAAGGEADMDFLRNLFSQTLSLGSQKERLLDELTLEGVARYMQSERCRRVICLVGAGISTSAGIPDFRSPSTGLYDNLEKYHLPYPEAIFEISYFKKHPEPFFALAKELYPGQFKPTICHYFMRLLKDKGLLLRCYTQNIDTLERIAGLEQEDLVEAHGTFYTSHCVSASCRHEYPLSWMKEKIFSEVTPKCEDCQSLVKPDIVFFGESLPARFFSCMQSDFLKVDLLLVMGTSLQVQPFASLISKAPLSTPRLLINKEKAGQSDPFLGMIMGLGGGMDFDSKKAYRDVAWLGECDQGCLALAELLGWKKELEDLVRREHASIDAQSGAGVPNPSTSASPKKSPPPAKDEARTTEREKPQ
Protocol: The microtiter plate fluorescence measurements were performed on a Tecan Infinite M200 microplate reader (Maennedorf, Switzerland) at λEx = 320 nm and λEm = 408 nm (lag time 9 μs, integration time […], gain 160, 170 or 182). The reactions (total volume 100 μl) were measured in black low-binding 96-well microtiter plates (NUNC). Assay-buffer, 500 μM NAD^+ and 0.07–200 μM peptide substrate were pre-incubated at 37 °C for 5 min. The reaction was started by adding human sirtuin (0.01–0.5 μM). The signals were converted into product concentration via calibration lines and the resulting data were evaluated as described above (single fluorescence measurement). The determination for the kinetic constants of NAD^+ was performed in the same way, except that the peptide concentration was fixed (5, 25 or 200 μM) and the NAD^+ concentration was varied (10–1500 μM). All measurements were done in duplicates. The reaction mixture for the calibration lines was prepared as described for the single fluorescence measurements. […] The resulting plots were analyzed by a competitive inhibition and non-competitive inhibition model using the program Sigma Plot 8. The linear regression of the apparent KM-values against the corresponding inhibitor concentration yielded the inhibitor constant Ki for competitive inhibition. The Ki for non-competitive inhibition was determined by linear regression of 1/apparent Vmax against the corresponding inhibitor concentration. The negative Ki value can be determined as intersection with the X-axis from these plots.
Supplementary Figure S15. Kinetic characteristics for sirtuin inhibitor 8. The reactions were performed with 0.01 µM Sirt2 /0.1 µM Sirt3 /0.5 µM Sirt6 and 500 µM NAD^+ and varying concentrations of 3 (0.07-100 µM). […] The negative Ki value can be determined as intersection with the X-axis from the Vmax^app-1/I plot.
Supplementary Figure S16. […] The negative Ki value can be determined as intersection with the X-axis from the Vmax^app-1/I plot.
Supplementary Figure S17. […] The negative Ki value can be determined as intersection with the X-axis from the Vmax^app-1/I plot.

Sirt1 = biological target: T3, Sirt1 (Homo sapiens, UniProt Q96EB6); experiment: HPLC based activity assay, influence of resveratrol on Sirt1 mediated deacylation of 3; assay type: biochemical; conditions: 0-100 µM resveratrol; Sirt1 0.5 µM, 3 20 µM, NAD+ 500 µM, 60 minutes at 37°C
T3 construct: made in house
T3 sequence (Q96EB6 1-747): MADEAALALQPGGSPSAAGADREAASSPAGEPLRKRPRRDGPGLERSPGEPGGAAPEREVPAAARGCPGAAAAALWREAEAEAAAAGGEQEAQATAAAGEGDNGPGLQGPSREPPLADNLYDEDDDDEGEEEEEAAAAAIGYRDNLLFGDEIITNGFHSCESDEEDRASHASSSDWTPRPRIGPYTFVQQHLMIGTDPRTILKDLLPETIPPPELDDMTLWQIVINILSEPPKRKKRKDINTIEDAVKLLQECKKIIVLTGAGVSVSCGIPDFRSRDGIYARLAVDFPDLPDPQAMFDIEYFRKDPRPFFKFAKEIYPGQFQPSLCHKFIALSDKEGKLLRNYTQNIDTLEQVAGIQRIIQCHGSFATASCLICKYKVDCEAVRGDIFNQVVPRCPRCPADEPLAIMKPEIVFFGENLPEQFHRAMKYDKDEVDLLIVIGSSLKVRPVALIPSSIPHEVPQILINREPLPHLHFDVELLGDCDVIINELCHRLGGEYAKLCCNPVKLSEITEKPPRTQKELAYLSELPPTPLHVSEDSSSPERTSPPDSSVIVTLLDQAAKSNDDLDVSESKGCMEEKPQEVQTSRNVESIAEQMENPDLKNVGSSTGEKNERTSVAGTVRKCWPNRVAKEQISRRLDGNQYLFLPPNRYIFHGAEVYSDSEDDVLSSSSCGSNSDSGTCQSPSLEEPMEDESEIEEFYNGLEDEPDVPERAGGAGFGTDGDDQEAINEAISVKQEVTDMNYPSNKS
Protocol: For the determination of kinetic constants for all sirtuin mediated reactions solutions containing 20 mM TRIS/HCl pH 7.8, 150 mM NaCl, 5 mM MgCl2 (assay-buffer), 500 μM NAD^+ and varying substrate concentrations (0.5–100 μM) were used. Deacylation was started by adding human sirtuin to reach a final concentration of 0.01–0.5 μM. Enzyme-catalyzed reaction was stopped using TFA (1% final concentration) after 1 min to 180 min of incubation at 37 °C depending on substrate reactivity. The cleavage rate of the different TNFα peptide derivatives was analyzed using analytical reversed phase HPLC. 40 to 80 μl of compounds or reaction solutions were injected and separated using a linear gradient from 5% to 95% solvent B within 6min. The product and substrate peaks were quantified using absorbance at 220 nm or 365 nm (absorption of 3-Nitrotyrosyl moiety). The peak areas were integrated and converted to initial velocity rates calculated from the ratio of product area to total peak area. Linear regression of conversions plotted against time yielded reaction rates in μM/min (relative conversion below 20% of substrate). […]
Supplementary Figure S4. […] Reaction was stopped using TFA (1% final concentration) and the consumption of 3 was analyzed using HPLC. […]

Sirt6 [3] = biological target: T1, Sirt6; experiment: Isomer specific inhibition by thioxo peptides, HPLC; assay type: biochemical; conditions: substrate 2a
Protocol: After 30 min incubation at 20 °C reaction was stopped using 10% TFA solution. Inhibitor solutions were irradiated at 254 nm for 5 min. Separated isomers were applied in concentrations from 1 to 10 μM. The influence of cis content on sirtuin inhibition using fluorescence spectrometer was determined with 500 μM NAD^+, 5 μM 3, 0.1 μM Sirt2 and 0.1 μM 9. Reactions were done at 20 °C with 9 in GS and PSS (after 5 min irradiation at 254 nm). 9 in PSS was applied immediately after irradiation (transfer time ~5 s) and started directly by adding sirtuin. Reactions were measured within 1 min to avoid re-isomerization.
Supplementary Figure S36. Determination of IC50 value of 8 for Sirt6 in GS (?) and PSS (π). Data were fitted with U(%) = Umin(%) + (Umax(%) – Umin(%))/(1+10^(x-logIC50)) with U(%) percental turmover of substrate 2a; Umin(%) lowest turnover of substrate; Umax(%) maximal turnover of substrate (n=3).
Supplementary Figure S37. Inhibition of Sirt6 by 8 (?) and 9 (π).Data were fitted with U(%) = Umin(%) + (Umax(%) – Umin(%))/(1+10^(x-logIC50)) with U(%) percental turmover of substrate; Umin(%) lowest turnover of substrate 2a; Umax(%) maximal turnover of substrate (n=3).
Supplementary Figure S38. Determination of IC50 of 9 for Sirt6 with 72.4 % cis- (π) and 70.3 % (?) trans-content. Measurements were done with 10 µM peptide substrate (big figure) or 30 µM (small figure). Data were fitted with U(%) = Umin(%) + (Umax(%) – Umin(%))/(1+10^(x-logIC50)) with U(%) percental turmover of substrate 2a; Umin(%) lowest turnover of substrate; Umax(%) maximal turnover of substrate (n=3).

T1 sequence (Q8N6T7 whole entry): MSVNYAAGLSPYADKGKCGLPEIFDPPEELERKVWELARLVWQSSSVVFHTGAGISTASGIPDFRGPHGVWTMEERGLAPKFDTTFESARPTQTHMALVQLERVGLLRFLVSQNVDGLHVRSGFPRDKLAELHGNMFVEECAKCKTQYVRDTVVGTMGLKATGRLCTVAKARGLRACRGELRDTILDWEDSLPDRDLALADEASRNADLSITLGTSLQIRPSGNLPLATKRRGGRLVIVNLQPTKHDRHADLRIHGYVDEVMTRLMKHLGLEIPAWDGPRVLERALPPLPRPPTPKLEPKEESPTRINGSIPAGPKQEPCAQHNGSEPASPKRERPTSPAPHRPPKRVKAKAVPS

SMILES: O=c1c(O)c(-c2ccc(O)c(O)c2)oc2cc(O)cc(O)c12 [Quercetin]
inhibition of enzymatic activity (Sirt6 [1]): 52%
type of inhibition with respect to the peptide substrate (Sirt6 [2]): non-competitive

SMILES: NC(=O)C1CCCc2c1[nH]c1ccc(Cl)cc21 (centres unmarked) [Ex-527]
inhibition of enzymatic activity (Sirt6 [1]): 56%
Ki (Sirt6 [2]; Sirt6 0.5 µM, varying substrate 3, 500 µM NAD+ (saturating)): 100 ± 11 µM
type of inhibition with respect to the peptide substrate (Sirt6 [2]): non-competitive

Other lines, results leading:

Ki (Sirt2; Sirt2 0.01 µM, varying substrate 3, 500 µM NAD+, read-out: Ki (3)): 0.6 ± 0.2 µM
Ki (Sirt2; Sirt2, substrate 3, read-out: Ki-value): 0.56 µM
SMILES: CC(C)[C@@H]1NC(=O)[C@H](Cc2c[nH]cn2)NC(=O)[C@H](Cc2ccc(O)cc2)NC(=O)[C@H]([C@@H](C)O)NC(=O)[C@H](Cc2c[nH]cn2)NC(=O)[C@H](Cc2ccc(O)cc2)NC(=O)CSC[C@@H](C(N)=O)NC(=O)[C@H](Cc2ccc(O)cc2)NC(=O)[C@H](Cc2ccc(O)cc2)NC(=O)[C@H](CC(N)=O)NC(=O)[C@H]([C@@H](C)O)NC(=O)[C@H](CCCNC(=N)N)NC(=O)[C@H](CCCNC(=N)N)NC(=O)[C@H](CCCCNC(=O)C(F)(F)F)NC1=O [S2iL5] ({CH2CO}-YHTYHVK(Tfa)RRTNYYC-NH2; thioether N-14)

influence on Sirt1 mediated deacylation of 3 (Sirt1): no significant influence
SMILES: Oc1ccc(/C=C/c2cc(O)cc(O)c2)cc1 [resveratrol]

IC50 (Sirt6 [3]; inhibitor with 29.7% cis isomer (HPLC-separated)): 1.7 ± 0.5 µM
IC50 (Sirt6 [3]; inhibitor with 72.4% cis isomer (HPLC-separated)): 0.6 ± 0.1 µM
SMILES: CCCCCCCCCCCCCC(=S)N(C)CCCC[C@H](NC(=O)[C@H](CCCCN)NC(=O)[C@@H]1CCCN1C(=O)[C@H](CC(C)C)NC(=O)[C@H](C)NC(=O)[C@H](CCC(=O)O)NC(C)=O)C(=O)N[C@H](C(=O)NCC(=O)NCC(N)=O)[C@@H](C)O [compound 9] (Ac-EALPK[X1]TGG-NH2)
